{
  "source": "patent US6096314A",
  "about": "“Peptides and pharmaceutical compositions comprising them” (Yeda Research and Development Co. Ltd., priority 1994, dated 2000)",
  "key": {"[1]": {"system": "anti-idiotypic T cells", "test": "Treatment with p277 in IFA, proliferation of spleen cells to C9VDJ peptide (FIG. 9)", "format": "in vivo", "conditions": "NOD female mice, 12 weeks old, treated in IFA subcutaneously; 2 or 5 weeks after treatment", "experimental": "FIGS. 4A and B Spontaneous anti-idiotypic responses in naive female (FIG. 4A) and male (FIG. 4B) NOD mice. T cell responses to hsp60 (idiotype) and to the C9 clone (anti-idiotype) were measured in naive female and male NOD mice. Ten female and 10 male NOD mice were sacrificed at 4, 6, 8, 10, 13 and 21 week of age and their spleens were taken for a T cell proliferative assay. Spleen cells were tested at 200,000 cells/0.2 cc in microtiter wells for proliferative responses to either human hsp60 (5 μg/ml) or the C9 clone (20,000 cells/well irradiated at 5000 rad). The a proliferative response was measured by adding 3H-thymidine to the culture for the last 16 h of a 72 h stimulation. The incorporated 3H-thymidine was measured on a β-counter and the stimulation index (SI) was calculated as cpm incorporation in the presence of antigen/cpm incorporation in the absence of antigen. Individual mice were tested separately and the mean±SD for each time point was calculated.\nNOD female mice, 12 weeks old, were immunized with p277 or p278 in IFA, […] per mouse subcutaneously, or left untreated 10 mice per group. At 2 or 5 weeks after treatment 5 mice of each group were sacrificed their spleens removed and tested individually in a proliferation assay to C9VDJ peptide 5 μg/ml, as described in FIG. 4."}, "[2]": {"system": "NOD mice", "conditions": "references (3), (4); cited from earlier work"}},
  "data": [
    {"sequence": "VLGGGCALLRCIPALDSLTPANED [p277]", "values": [
      {"measurement": "Anti-C9 response (proliferation to C9VDJ peptide 5 μg/ml)", "setting": "[1]", "result": "induces anti-C9 response"},
      {"measurement": "Effect of vaccination on diabetes", "setting": "[2]", "result": "prevent (3) or even reverse diabetes"}
    ]}
  ]
}
